One may read the IC50 as the point on the concentration scale where inhibition reaches its midpoint.

This note sets out measurements from patent publication US9394282B2, “Pyrazole carboxamides as Janus kinase inhibitors” (Merck Sharp & Dohme Corp., priority 2011, dated 2016).

In this test the target is JAK1 (Homo sapiens (Human), UniProt P23458). The test is described as follows: Jak biochemical HTRF assay, JAK1. As to conditions: recombinant purified GST-tagged catalytic domain; HTRF format; [ATP] 31.8 μM. The source says: Jak Biochemical HTRF Assay Protocol
Sequence of JAK1 (P23458 875-1153): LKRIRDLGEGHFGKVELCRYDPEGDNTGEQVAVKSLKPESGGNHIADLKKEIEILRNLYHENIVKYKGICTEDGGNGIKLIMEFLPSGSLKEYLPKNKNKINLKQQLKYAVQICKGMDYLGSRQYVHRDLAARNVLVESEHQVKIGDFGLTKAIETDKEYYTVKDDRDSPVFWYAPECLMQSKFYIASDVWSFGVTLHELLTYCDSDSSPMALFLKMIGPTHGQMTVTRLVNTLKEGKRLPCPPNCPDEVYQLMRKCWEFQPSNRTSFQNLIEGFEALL
Subsequent reagent additions employed an Agilent Bravo.
In general terms: In TR-FRET formats the signal depends on donor and acceptor labels being close together.
For the compound `N#C[C@@H]1CCN(C(=O)OCCN2CCOCC2)CC1n1cc(C(N)=O)c(Nc2ccc(F)cc2)n1` (mixture of isomers) [Example 5-87, 2-morpholin-4-ylethyl (3S,4R and 3R,4S)-3-{4-carbamoyl-3-[(4-fluorophenyl)amino]-1H-pyrazol-1-yl}-4-cyanopiperidine-1-carboxylate], the 50% inhibitory concentration (IC50) was 4 nM.

For `N#CCC1(COC(=O)N2CC[C@H](n3cc(C(N)=O)c(Nc4ccc(F)cc4)n3)[C@H](C#N)C2)CC1` (racemic) [Example 5-64, [1-(cyanomethyl)cyclopropyl]methyl (3R,4S and 3S,4R)-4-{4-carbamoyl-3-[(4-fluorophenyl)amino]-1H-pyrazol-1-yl}-3-cyanopiperidine-1-carboxylate], the IC50 was found to be 440 nM.

In the case of `N#C[C@H]1CS(=O)(=O)CC1n1cc(C(N)=O)c(Nc2ccnc(F)c2)n1` (mixture of isomers) [Example 8-8, 1-((3S,4S and 3R,4R)-4-cyano-1,1-dioxidotetrahydrothiophen-3-yl)-3-((2-fluoropyridin-4-yl)amino)-1H-pyrazole-4-carboxamide], the half-inhibitory concentration (IC50) was determined as 5 nM.

Consider `N#C[C@@H]1CN(C(=O)OC2CCCC2)CC[C@@H]1n1cc(C(N)=O)c(Nc2ccc(F)cc2)n1` (racemic) [Example 5-49, cyclopentyl (3R,4S and 3S,4R)-4-{4-carbamoyl-3-[(4-fluorophenyl)amino]-1H-pyrazol-1-yl}-3-cyanopiperidine-1-carboxylate], for which the IC50 came to 257 nM.

As for `COC(C)(C)c1ccc(Nc2nn([C@H]3COCC[C@@H]3C#N)cc2C(N)=O)cc1` (single isomer, unassigned) [Example 9-23, 1-[(3R,4S or 3S,4R)-4-cyanotetrahydro-2H-pyran-3-yl]-3-{[4-(1-methoxy-1-methylethyl)phenyl]amino}-1H-pyrazole-4-carboxamide], the half-maximal inhibitory concentration (IC50) amounted to 3 nM.

Take `N#C[C@@H]1CN(C(=O)OC2CCOC2)CC[C@@H]1n1cc(C(N)=O)c(Nc2ccc(F)cc2)n1` (mixture of isomers) [Example 5-51, tetrahydrofuran-3-yl (3R,4S and 3S,4R)-4-{4-carbamoyl-3-[(4-fluorophenyl)amino]-1H-pyrazol-1-yl}-3-cyanopiperidine-1-carboxylate]: the half-inhibitory concentration (IC50) was 212 nM.

For the compound `N#C[C@@H]1CN(C(=O)OCCN2CCOCC2)CC[C@H]1n1cc(C(N)=O)c(Nc2ccc(F)cc2)n1` (racemic) [Example 5-4, 2-morpholin-4-ylethyl (3R,4R and 3S,4S)-4-{4-carbamoyl-3-[(4-fluorophenyl)amino]-1H-pyrazol-1-yl}-3-cyanopiperidine-1-carboxylate], the IC50 stood at 29 nM.

On to `CC(C)(C)CCOC(=O)N1CC[C@@H](C#N)C(n2cc(C(N)=O)c(Nc3ccc(F)cc3)n2)C1` (mixture of isomers) [Example 4, 3,3-Dimethylbutyl(3S,4R and 3R,4S)-3-{4-carbamoyl-3-[(4-fluorophenyl)amino]-1H-pyrazol-1-yl}-4-cyanopiperidine-1-carboxylate], for which the IC50 was 8 nM.

`N#C[C@@H]1CN(Cc2cocn2)CC[C@H]1n1cc(C(N)=O)c(Nc2ccc(F)cc2)n1` (racemic) [Example 6-25, 1-[(3R,4R and 3S,4S)-3-cyano-1-(1,3-oxazol-4-ylmethyl)piperidin-4-yl]-3-[(4-fluorophenyl)amino]-1H-pyrazole-4-carboxamide]: the IC50 was found to be 6 nM.

Consider `N#C[C@@H]1CN(C(=O)OC2CCOC2)CC[C@H]1n1cc(C(N)=O)c(Nc2ccc(F)cc2)n1` (mixture of isomers) [Example 5-25, tetrahydrofuran-3-yl (3R,4R and 3S,4S)-4-{4-carbamoyl-3-[(4-fluorophenyl)amino]-1H-pyrazol-1-yl}-3-cyanopiperidine-1-carboxylate], for which the IC50 is 12 nM.

Consider `CC(C)(COC(=O)N1CC[C@@H](n2cc(C(N)=O)c(Nc3ccc(F)cc3)n2)[C@H](C#N)C1)n1cccn1` (racemic) [Example 5-27, 2-methyl-2-(1H-pyrazol-1-yl)propyl (3R,4R and 3S,4S)-4-{4-carbamoyl-3-[(4-fluorophenyl)amino]-1H-pyrazol-1-yl}-3-cyanopiperidine-1-carboxylate], for which the IC50 worked out at 92 nM.

For `N#C[C@@H]1CN(C(=O)OC2CCOCC2)CC[C@@H]1n1cc(C(N)=O)c(Nc2ccc(F)cc2)n1` (racemic) [Example 5-60, tetrahydro-2H-pyran-4-yl (3R,4S and 3S,4R)-4-{4-carbamoyl-3-[(4-fluorophenyl)amino]-1H-pyrazol-1-yl}-3-cyanopiperidine-1-carboxylate], the half-inhibitory concentration (IC50) came to 358 nM.

Turning to `N#C[C@@H]1CCOC[C@H]1n1cc(C(N)=O)c(Nc2ccc(Cl)c(F)c2)n1` (single isomer, unassigned) [Example 9-13, 3-[(4-chloro-3-fluorophenyl)amino]-1-[(3S,4R or 3R,4S)-4-cyanotetrahydro-2H-pyran-3-yl]-1H-pyrazole-4-carboxamide], the IC50 stood at 0.2 nM.

Consider `CC(C)(C)COC(=O)N1CC[C@@H](n2cc(C(N)=O)c(Nc3ccc(F)cc3)n2)[C@H](C#N)C1` (racemic) [Example 5-18, 2,2-dimethylpropyl (3R,4R and 3S,4S)-4-{4-carbamoyl-3-[(4-fluorophenyl)amino]-1H-pyrazol-1-yl}-3-cyanopiperidine-1-carboxylatc], for which the IC50 worked out at 132 nM.

As for `N#C[C@@H]1CCOC[C@H]1n1cc(C(N)=O)c(Nc2ccc(C(F)(F)F)nc2)n1` (single isomer, unassigned) [Example 9-15, 1-[(3S,4R or 3R,4S)-4-cyanotetrahydro-2H-pyran-3-yl]-3-{[6-(trifluoromethyl)pyridin-3-yl]amino}-1H-pyrazole-4-carboxamide], the IC50 stood at 46 nM.

As to `N#C[C@@H]1CN(C(=O)OCC(F)F)CC[C@@H]1n1cc(C(N)=O)c(Nc2ccc(F)cc2)n1` (racemic) [Example 5-65, 2,2-difluoroethyl (3R,4S and 3S,4R)-4-{4-carbamoyl-3-[(4-fluorophenyl)amino]-1H-pyrazol-1-yl}-3-cyanopiperidine-1-carboxylate], the IC50 amounted to 83 nM.

Consider `N#C[C@H]1CCOC[C@@H]1n1cc(C(N)=O)c(Nc2ccc(Cl)c(F)c2)n1` (single isomer, unassigned) [Example 9-12, 3-[(4-chloro-3-fluorophenyl)amino]-1-[(3R,4S or 3S,4R)-4-cyanotetrahydro-2H-pyran-3-yl]-1H-pyrazole-4-carboxamide], for which the IC50 amounted to 16 nM.

On to `N#C[C@@H]1CN(C(=O)OC2CCCC2)CC[C@H]1n1cc(C(N)=O)c(Nc2ccc(F)cc2)n1` (racemic) [Example 5-11, cyclopentyl (3R,4R and 3S,4S)-4-{4-carbamoyl-3-[(4-fluorophenyl)amino]-1H-pyrazol-1-yl}-3-cyanopiperidine-1-carboxylate], for which the IC50 was found to be 29 nM.

Take `COC(C)(C)c1ccc(Nc2nn([C@@H]3COCC[C@H]3C#N)cc2C(N)=O)cc1` (single isomer, unassigned) [Example 9-25, 1-[(3S,4R or 3R,4R)-4-cyanotetrahydro-2H-pyran-3-yl]-3-{[4-(1-methoxy-1-methylethyl)phenyl]amino}-1H-pyrazole-4-carboxamide]: the half-maximal inhibitory concentration (IC50) was determined as 0.1 nM.

In the case of `N#C[C@H]1CCOC[C@@H]1n1cc(C(N)=O)c(Nc2ccc(Cl)c(Cl)c2)n1` (single isomer, unassigned) [Example 9-10, 1-[(3R,4S or 3S,4R)-4-cyanotetrahydro-2H-pyran-3-yl]-3-[(3,4-dichlorophenyl)amino]-1H-pyrazole-4-carboxamide], the IC50 worked out at 26 nM.

Consider `N#C[C@@H]1CCN(C(=O)OCCC2CC2)CC1n1cc(C(N)=O)c(Nc2ccc(F)cc2)n1` (mixture of isomers) [Example 5-91, 2-cyclopropylethyl (3S,4R and 3R,4S)-3-{4-carbamoyl-3-[(4-fluorophenyl)amino]-1H-pyrazol-1-yl}-4-cyanopiperidine-1-carboxylate], for which the IC50 was determined as 1 nM.

Take `Cn1ccc(CN2CC[C@@H](n3cc(C(N)=O)c(Nc4ccc(F)cc4)n3)[C@H](C#N)C2)n1` (racemic) [Example 6-26, 1-{(3R,4R and 3S,4S)-3-cyano-1-[(1-methyl-1H-pyrazol-3-yl)methyl]piperidin-4-yl}-3-[(4-fluorophenyl)amino]-1H-pyrazole-4-carboxamide]: the IC50 was 17 nM.

Turning to `N#C[C@@H]1CCN(Cc2cncs2)C[C@H]1n1cc(C(N)=O)c(Nc2ccc(F)cc2)n1` (racemic) [Example 7-1, 1-[(3S,4R and 3R,4S)-4-Cyano-1-(1,3-thiazol-5-ylmethyl)piperidin-3-yl]-3-[(4-fluorophenyl)amino]-1H-pyrazole-4-carboxamide], the concentration for half-maximal inhibition (IC50) is 0.5 nM.

`N#C[C@@H]1CN(C(=O)OCC(F)F)CC[C@H]1n1cc(C(N)=O)c(Nc2ccc(F)cc2)n1` (racemic) [Example 5-16, 2,2-difluoroethyl (3R,4R and 3S,4S)-4-{4-carbamoyl-3-[(4-fluorophenyl)amino]-1H-pyrazol-1-yl}-3-cyanopiperidine-1-carboxylate]: the IC50 turned out to be 8 nM.

As to `CCOC(=O)COC(=O)N1CC[C@@H](n2cc(C(N)=O)c(Nc3ccc(F)cc3)n2)[C@H](C#N)C1` (racemic) [Example 5-38, 2-ethoxy-2-oxoethyl (3R,4R and 3S,4S)-4-{4-carbamoyl-3-[(4-fluorophenyl)amino]-1H-pyrazol-1-yl}-3-cyanopiperidine-1-carboxylate], the IC50 was 3 nM.

As for `N#C[C@@H]1CCOC[C@H]1n1cc(C(N)=O)c(Nc2ccc(Cl)c(Cl)c2)n1` (single isomer, unassigned) [Example 9-11, 1-[(3S,4R or 3R,4S)-4-cyanotetrahydro-2H-pyran-3-yl]-3-[(3,4-dichlorophenyl)amino]-1H-pyrazole-4-carboxamide], the IC50 is 0.4 nM.

As to `N#C[C@@H]1CN(C(=O)OCC(F)(F)F)CC[C@H]1n1cc(C(N)=O)c(Nc2ccc(F)cc2)n1` (racemic) [Example 5-28, 2,2,2-trifluoroethyl (3R,4R and 3S,4S)-4-{4-carbamoyl-3-[(4-fluorophenyl)amino]-1H-pyrazol-1-yl}-3-cyanopiperidine-1-carboxylate], the IC50 came to 10 nM.

Regarding `CCOC(=O)COC(=O)N1CC[C@H](n2cc(C(N)=O)c(Nc3ccc(F)cc3)n2)[C@H](C#N)C1` (racemic) [Example 5-59, 2-ethoxy-2-oxoethyl (3R,4S and 3S,4R)-4-{4-carbamoyl-3-[(4-fluorophenyl)amino]-1H-pyrazol-1-yl}-3-cyanopiperidine-1-carboxylate], the half-inhibitory concentration (IC50) was 323 nM.
